System: MDA-MB-231 multicell spheroids, viability
Assay: Anticancer human tumor MDA-MB-231 cell line growth inhibition [PI3K];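 also: spheroids exposed to agents for seven days before reading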;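 as to viability, T/C: percent of vehicle control luminescence with DMSO treated spheroids as 100%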
Settings: for IC50: curve of first compound; for viability, T/C: stronger effect = lower value
Method in brief: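 Three cell types, namely tumor cells, endothelial cells and mesenchymal stem cells, formed each spheroid. Combinations with four PI3K inhibitors were screened at clinically achievable concentrations decreasing by half-log, and spheroid viability was recorded.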

[1] = second compound 0.00316 µM, first compound 0.0316 µM
[2] = second compound 0.00316 µM, first compound 0.1 µM
[3] = second compound 0.00316 µM, first compound 0.316 µM
[4] = second compound 0.00316 µM, first compound 1 µM
[5] = second compound 0.01 µM, first compound 0.0316 µM
[6] = second compound 0.01 µM, first compound 0.1 µM
[7] = second compound 0.01 µM, first compound 0.316 µM
[8] = second compound 0.01 µM, first compound 1 µM
[9] = second compound 0.0316 µM, first compound 0.0316 µM
[10] = second compound 0.0316 µM, first compound 0.1 µM
[11] = second compound 0.0316 µM, first compound 0.316 µM
[12] = second compound 0.0316 µM, first compound 1 µM
[13] = second compound 0.1 µM, first compound 0.0316 µM
[14] = second compound 0.1 µM, first compound 0.1 µM
[15] = second compound 0.1 µM, first compound 0.316 µM
[16] = second compound 0.1 µM, first compound 1 µM
[17] = second compound 0.316 µM, first compound 0.0316 µM
[18] = second compound 0.316 µM, first compound 0.1 µM
[19] = second compound 0.316 µM, first compound 0.316 µM
[20] = second compound 0.316 µM, first compound 1 µM
[21] = second compound 1 µM, first compound 0.0316 µM
[22] = second compound 1 µM, first compound 0.1 µM
[23] = second compound 1 µM, first compound 0.316 µM
[24] = second compound 1 µM, first compound 1 µM

C=CC(=O)N1CCN(c2nc(=O)n(-c3c(C)ccnc3C(C)C)c3nc(-c4c(O)cccc4F)c(F)cc23)C(C)C1 (centres undefined) + CC(Nc1ccc2c(c1)OCCn1cc(N3C(=O)OCC3C(F)F)nc1-2)C(N)=O
IC50 (second compound 0.00316 µM): > 10000 nM | IC50 (second compound 0.01 µM): > 10000 nM | IC50 (second compound 0.0316 µM): > 10000 nM | IC50 (second compound 0.1 µM): > 10000 nM | IC50 (second compound 0.316 µM): > 10000 nM | IC50 (second compound 1 µM): 8260 nM | viability, T/C [1]: 97.8% | viability, T/C [2]: 113% | viability, T/C [3]: 117% | viability, T/C [4]: 124% | viability, T/C (second compound 0.00316 µM, first compound 3.16 µM): 126% | viability, T/C (second compound 0.00316 µM, first compound 10 µM): 111% | viability, T/C [5]: 97.5% | viability, T/C [6]: 99.1% | viability, T/C [7]: 99.3% | viability, T/C [8]: 119% | viability, T/C (second compound 0.01 µM, first compound 3.16 µM): 122% | viability, T/C (second compound 0.01 µM, first compound 10 µM): 106% | viability, T/C [9]: 80.3% | viability, T/C [10]: 86.1% | viability, T/C [11]: 88.3% | viability, T/C [12]: 97.8% | viability, T/C (second compound 0.0316 µM, first compound 3.16 µM): 99.2% | viability, T/C (second compound 0.0316 µM, first compound 10 µM): 82.1% | viability, T/C [13]: 69.8% | viability, T/C [14]: 71.2% | viability, T/C [15]: 81.6% | viability, T/C [16]: 73% | viability, T/C (second compound 0.1 µM, first compound 3.16 µM): 68.5% | viability, T/C (second compound 0.1 µM, first compound 10 µM): 59.3% | viability, T/C [17]: 68.7% | viability, T/C [18]: 64.6% | viability, T/C [19]: 67.8% | viability, T/C [20]: 68.8% | viability, T/C (second compound 0.316 µM, first compound 3.16 µM): 62.1% | viability, T/C (second compound 0.316 µM, first compound 10 µM): 48% | viability, T/C [21]: 59.2% | viability, T/C [22]: 57.7% | viability, T/C [23]: 62.1% | viability, T/C [24]: 60.6% | viability, T/C (second compound 1 µM, first compound 3.16 µM): 58.1% | viability, T/C (second compound 1 µM, first compound 10 µM): 40.3%

CCN1CCN(Cc2ccc(Nc3ncc(F)c(-c4cc(F)c5nc(C)n(C(C)C)c5c4)n3)nc2)CC1 + CC(Nc1ccc2c(c1)OCCn1cc(N3C(=O)OCC3C(F)F)nc1-2)C(N)=O
IC50 (second compound 0.00316 µM): 131 nM | IC50 (second compound 0.01 µM): 79.2 nM | IC50 (second compound 0.0316 µM): 53.2 nM | IC50 (second compound 0.1 µM): 24.4 nM | IC50 (second compound 0.316 µM): 21.4 nM | IC50 (second compound 1 µM): 20 nM | viability, T/C (second compound 0.00316 µM, first compound 0.00316 µM): 90.8% | viability, T/C (second compound 0.00316 µM, first compound 0.01 µM): 103% | viability, T/C [1]: 76% | viability, T/C [2]: 54.5% | viability, T/C [3]: 41.9% | viability, T/C [4]: 44.9% | viability, T/C (second compound 0.01 µM, first compound 0.00316 µM): 92.7% | viability, T/C (second compound 0.01 µM, first compound 0.01 µM): 96.3% | viability, T/C [5]: 65.7% | viability, T/C [6]: 50.1% | viability, T/C [7]: 40.6% | viability, T/C [8]: 47% | viability, T/C (second compound 0.0316 µM, first compound 0.00316 µM): 80.2% | viability, T/C (second compound 0.0316 µM, first compound 0.01 µM): 84.3% | viability, T/C [9]: 57.4% | viability, T/C [10]: 42.6% | viability, T/C [11]: 35% | viability, T/C [12]: 45.5% | viability, T/C (second compound 0.1 µM, first compound 0.00316 µM): 69.5% | viability, T/C (second compound 0.1 µM, first compound 0.01 µM): 70.4% | viability, T/C [13]: 44.2% | viability, T/C [14]: 37.1% | viability, T/C [15]: 33.3% | viability, T/C [16]: 43.8% | viability, T/C (second compound 0.316 µM, first compound 0.00316 µM): 63.4% | viability, T/C (second compound 0.316 µM, first compound 0.01 µM): 62.8% | viability, T/C [17]: 43.4% | viability, T/C [18]: 36.5% | viability, T/C [19]: 35.4% | viability, T/C [20]: 43.5% | viability, T/C (second compound 1 µM, first compound 0.00316 µM): 60.1% | viability, T/C (second compound 1 µM, first compound 0.01 µM): 64.8% | viability, T/C [21]: 41.7% | viability, T/C [22]: 34.5% | viability, T/C [23]: 34.4% | viability, T/C [24]: 39.1%

From PubChem BioAssay AID1963958 (Molecular Pharmacology Branch, DTP, NCI, 2024)
